Assay results published in patent US20060069132A1, “Azolecarboxamide herbicides” (priority 2004, published 2006).

What was measured:
[1] = test system: rice; experiment: Test B pre-/postemergence herbicide test; format: in vivo, Oryza sativa
In short: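 Herbicidal effect was judged by eye on a 0–100 scale after plants stood 13 to 15 days in the greenhouse following pre- or postemergence treatment with surfactant-containing formulations.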

[2] = test system: blackgrass; experiment: Test B postemergence herbicide test; format: in vivo, Alopecurus myosuroides
In short: (§1)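 Treated at 2-leaf (paddy) or 1–4-leaf, 2–18 cm (postemergence); greenhouse 13–15 d; visual score vs control, 0 none to 100 complete control; dash = not tested.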

[3] = test system: ducksalad; experiment: Test B flooded paddy test; format: in vivo, Heteranthera limosa; details: 1000 g ai/ha, scale 0 to 100 (0 no effect, 100 complete control)
In short: as §1

[4] = test system: cocklebur; experiment: Test C pre-/postemergence herbicide test; format: in vivo, Xanthium strumarium; details: for Cocklebur plant response rating: Preemergence, 500 g ai/ha, scale 0 to 100, 0 no effect, 100 complete control
In short: (§2)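 Emerged plants at the 1- to 4-leaf stage (2–18 cm), or freshly planted seeds, received test chemicals in a non-phytotoxic solvent mixture with surfactant. Response was visually scored against controls after 12 to 14 days in the greenhouse, on a 0 (no effect) to 100 (complete control) scale.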

[5] = test system: giant foxtail; experiment: Test C pre-/postemergence herbicide test; format: in vivo, Setaria faberi; details: for Foxtail, Giant plant response rating: Preemergence, scale 0 to 100, 0 no effect, 100 complete control
In short: as §2

[6] = test system: johnsongrass; experiment: Test C pre-/postemergence herbicide test; format: in vivo, Sorghum halepense; details: for Johnsongrass plant response rating: Preemergence, scale 0 to 100, 0 no effect, 100 complete control
In short: as §2

[7] = test system: common ragweed; experiment: Test C pre-/postemergence herbicide test; format: in vivo, Ambrosia elatior; parameters: key to Plant response rating, Ragweed: 0 = no effect, 100 = complete control; details: for Ragweed plant response rating: Preemergence, scale 0 to 100, 0 no effect, 100 complete control
In short: as §2

[8] = test system: common (oilseed) sunflower; experiment: Test C pre-/postemergence herbicide test; format: in vivo, Helianthus annuus; details: for Sunflower plant response rating: Preemergence, scale 0 to 100, 0 no effect, 100 complete control
In short: as §2

[9] = test system: rice; experiment: Test C flooded paddy test; format: in vivo, Oryza sativa; details: for Plant response rating, Rice: 500 g ai/ha, visual rating after 12 to 14 days
In short: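 Plants were grown to the 1- to 4-leaf stage (2–18 cm) and then treated postemergence, or grown to the 2-leaf stage for the flooded paddy test. They were held in a greenhouse for 12 to 14 days and then scored by eye against controls, where 0 is no effect and 100 is complete control.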

[10] = 62 g ai/ha, preemergence, scale 0 to 100
[11] = 125 g ai/ha, scale 0 (no effect) to 100 (complete control), visual, 12 to 14 days, preemergence
[12] = 250 g ai/ha, scale 0-100, preemergence
[13] = 500 g ai/ha, scale 0 to 100 (0 no effect, 100 complete control), visual, 12 to 14 days, preemergence
[14] = 125 g ai/ha, scale 0 to 100 (0 no effect, 100 complete control)
[15] = 250 g ai/ha, scale of 0 to 100, 0 is no effect, 100 is complete control
[16] = scale 0 to 100 (0 no effect, 100 complete control)
[17] = preemergence, 125 g ai/ha, 0 to 100 scale, 0 is no effect, 100 is complete control
[18] = 250 g ai/ha, scale 0 to 100 (0 no effect, 100 complete control), visual, 12 to 14 days, preemergence
[19] = 62 g ai/ha, scale 0 to 100 (0 no effect, 100 complete control)

| Compound | Plant response rating, Cocklebur [4, 11] | Cocklebur plant response rating [4] | Plant response rating, Foxtail, Giant [5, 10] | Plant response rating, Foxtail, Giant [5, 11] | Plant response rating, Johnsongrass [6, 10] | Plant response rating, Johnsongrass [6, 11] | Plant response rating, Ragweed [7, 10] | Plant response rating, Sunflower [8, 10] | Rice plant response rating [9, 14] | Rice plant response rating [9, 15] | Plant response rating, Rice [9, 16] | Plant response rating, Rice [1, 17] | Ducksalad plant response rating ([3]; visual rating, 13 to 15 days) | Plant response rating, Cocklebur [4, 18] | Plant response rating, Foxtail, Giant [5, 18] | Foxtail, Giant plant response rating ([5]; 500 g ai/ha) | Johnsongrass plant response rating ([6]; 500 g ai/ha) | Plant response rating, Ragweed [7, 11] | Ragweed plant response rating ([7]; 500 g ai/ha) | Plant response rating, Sunflower [8, 11] | other results |
| --- | --- | --- | --- | --- | --- | --- | --- | --- | --- | --- | --- | --- | --- | --- | --- | --- | --- | --- | --- | --- | --- |
| CCN(C)C(=O)c1ccc(F)c(NC(=O)C2CC(C(C)(C)C)=NN2CC)c1 (racemic) [Compound 307] | 30 | 75 | 70 | 85 | 60 | 80 | 80 | 0 | 60 | 65 | 80 |  |  |  |  |  |  |  |  |  | Rice plant response rating (0 to 100 scale) ([1]; 125 g ai/ha, 0 = no effect, 100 = complete control, preemergence): 80; Plant response rating, Rice ([1]; 500 g ai/ha, visual rating, 0 = no effect, 100 = complete control, preemergence): 90; Blackgrass plant response rating ([2]; 125 g ai/ha, visual rating, scale 0 (no effect) to 100 (complete control), postemergence): 10; Blackgrass plant response rating ([2]; postemergence, 500 g ai/ha, scale 0 to 100, 0 is no effect, 100 is complete control): 30; Ducksalad plant response rating [3]: 80; Plant response rating, Cocklebur [4, 10]: 0; Plant response rating, Cocklebur [4, 12]: 35; Plant response rating, Foxtail, Giant [5, 12]: 100; Plant response rating, Foxtail, Giant [5, 13]: 100; Plant response rating, Johnsongrass [6, 12]: 90; Plant response rating, Johnsongrass [6, 13]: 100; Plant response rating, Ragweed [7, 12]: 100; Plant response rating, Ragweed [7, 13]: 100; Plant response rating, Sunflower [8, 12]: 60; Plant response rating, Sunflower [8, 13]: 60; Rice plant response rating ([9]; 62 g ai/ha, scale 0 to 100): 55 |
| CCN(C)C(=O)c1cccc(NC(=O)c2cc(C(C)(C)C)nn2CC)c1 [Compound 48] | 0 | 10 |  | 0 |  | 20 |  |  |  |  |  | 10 | 80 | 0 | 10 | 50 | 85 | 5 | 100 | 0 | Rice plant response rating ([1]; Preemergence, 500 g ai/ha, scale 0 to 100): 60; Blackgrass plant response rating ([2]; Postemergence, 125 g ai/ha, scale 0 (no effect) to 100 (complete control)): 0; Plant response rating, Blackgrass ([2]; Postemergence, 500 g ai/ha, visual rating after 13 to 15 days, scale 0 (no effect) to 100 (complete control)): 10; Plant response rating (0 = no effect, 100 = complete control), Cocklebur ([4]; 62 g ai/ha, preemergence): 0; Plant response rating (0 = no effect, 100 = complete control), Foxtail, Giant ([5]; 62 g ai/ha, preemergence): 0; Plant response rating (0 = no effect, 100 = complete control), Johnsongrass ([6]; 62 g ai/ha, preemergence): 10; Plant response rating, Johnsongrass [6, 18]: 50; Plant response rating (0 = no effect, 100 = complete control), Ragweed ([7]; 62 g ai/ha, preemergence): 0; Plant response rating, Ragweed [7, 18]: 70; Plant response rating (0 = no effect, 100 = complete control), Sunflower ([8]; 62 g ai/ha, preemergence): 0; Plant response rating, Sunflower [8, 18]: 0; Sunflower plant response rating ([8]; 500 g ai/ha): 0; Rice plant response rating ([9]; 16 g ai/ha, scale 0 to 100): 0; Rice plant response rating ([9]; 31 g ai/ha, scale 0 to 100): 0; Rice plant response rating [9, 19]: 0; Rice plant response rating ([9]; 125 g ai/ha, scale of 0 to 100, 0 is no effect, 100 is complete control): 20 |
| CCn1nc(C(C)(C)C)cc1C(=O)Nc1cccc(C(N)=O)n1 [Compound 162, 6-[[[3-(1,1-dimethylethyl)-1-ethyl-1H-pyrazol-5-yl]carbonyl]amino]-2-pyridinecarboxamide] |  | 75 | 55 | 60 | 65 | 80 | 95 | 0 | 60 | 70 | 75 | 90 | 80 | 65 | 60 | 75 | 95 | 95 | 100 | 15 | Plant response rating, Rice ([1]; 500 g ai/ha, visual rating 0-100, 0 no effect, 100 complete control, preemergence): 90; Blackgrass plant response rating ([2]; postemergence, 125 g ai/ha, visual rating, scale 0 (no effect) to 100 (complete control)): 20; Blackgrass plant response rating ([2]; postemergence, 500 g ai/ha, visual rating, scale 0 (no effect) to 100 (complete control)): 50; Sunflower plant response rating ([8]; 500 g ai/ha): 90; Rice plant response rating [9, 19]: 55 |
